# Assay results published in ChEMBL document CHEMBL5241112, “Insights into the recent progress in the medicinal chemistry of pyranopyrimidine analogs” (RSC Med Chem, 2022).
# Assays:
# [1] = test system: Aspergillus fumigatus; assay: microbe, parasite or virus in culture; assay type: functional; conditions: ATCC204305, dose 50 mg/ml, time 24 hrs, read-out: DIZ
# [2] = test system: Staphylococcus aureus; assay: Antibacterial activity against Staphylococcus aureus ATCC6538-P assessed as diameter of inhibition zone at 50 mg/ml incubated for 24 hrs by paper disk diffusion method; assay type: functional; conditions: read-out: DIZ
# [3] = test system: Streptococcus pneumoniae; assay: Antibacterial activity against Streptococcus pneumoniae ATCC BAA-255/R6 assessed as diameter of inhibition zone at 50 mg/ml incubated for 24 hrs by paper disk diffusion method; assay type: functional; conditions: read-out: DIZ
# [4] = test system: Klebsiella pneumoniae; assay: Antibacterial activity against Klebsiella pneumoniae MGH 78578 assessed as diameter of inhibition zone at 50 mg/ml incubated for 24 hrs by paper disk diffusion method; assay type: functional; conditions: read-out: DIZ
# [5] = target: Alpha-glucosidase (Saccharomyces cerevisiae S288c, UniProt P53341+P38158+P07265); assay: Inhibition of Saccharomyces cerevisiae alpha-glucosidase assessed as decrease in release of p-nitrophenol using pNPG as substrate incubated for 10 mins by spectroscopic analysis; assay type: protein assay
# [6] = target: Alpha-glucosidase (Mus musculus); assay: Inhibition of mouse alpha-glucosidase assessed as decrease in release of p-nitrophenol using pNPG as substrate preincubated for 10 mins followed by substrate addition and measured after 30 mins by spectroscopic analysis
# [7] = test system: Escherichia coli; assay: Antibacterial activity against Escherichia coli MTCC 739 assessed as bacterial growth inhibition; assay type: functional
# [8] = test system: Staphylococcus aureus; assay: Antibacterial activity against Staphylococcus aureus MTCC 96 assessed as minimum bactericidal concentration; assay type: functional
# [9] = test system: Raoultella planticola; assay: Antibacterial activity against Raoultella planticola MTCC 530 assessed as bacterial growth inhibition; assay type: functional; conditions: Klebsiella planticola
# [10] = test system: Micrococcus luteus; assay: Antibacterial activity against Micrococcus luteus MTCC 2470 assessed as bacterial growth inhibition; assay type: functional
# [11] = test system: Staphylococcus aureus; assay: Antibacterial activity against Staphylococcus aureus MLS-16 MTCC 2940 assessed as bacterial growth inhibition; assay type: functional
# [12] = test system: Bacillus subtilis; assay: Antibacterial activity against Bacillus subtilis MTCC 121 assessed as minimum bactericidal concentration; assay type: functional
# [13] = test system: Bacillus subtilis; assay: Antibacterial activity against Bacillus subtilis MTCC 121 assessed as bacterial growth inhibition; assay type: functional
# [14] = test system: Pseudomonas aeruginosa; assay: Antibacterial activity against Pseudomonas aeruginosa MTCC 2453 assessed as bacterial growth inhibition; assay type: functional
# [15] = test system: Staphylococcus aureus; assay: Antibacterial activity against Staphylococcus aureus MLS-16 MTCC 2940 assessed as minimum bactericidal concentration; assay type: functional
# [16] = test system: HCT-116; assay: cells; conditions: Homo sapiens
# [17] = test system: HepG2; assay: Anticancer activity against human HepG2 cells assessed as reduction in cell viability; assay type: functional, cell-based
# [18] = test system: Bacillus subtilis; assay: Antibacterial activity against Bacillus subtilis ATCC 6633 assessed as inhibition of bacterial growth incubated for 24 hrs by broth macrodilution method; assay type: functional
# [19] = test system: Bacillus subtilis; assay: Antibacterial activity against Bacillus subtilis ATCC 6633 assessed as diameter of inhibition zone incubated for 24 hrs by disc diffusion assay; assay type: functional
# [20] = test system: MCF7; assay: Anticancer activity against human MCF7 cells assessed as reduction in cell viability; assay type: functional, cell-based
# [21] = test system: Staphylococcus aureus; assay: Antibacterial activity against Staphylococcus aureus ATCC 25923 assessed as diameter of inhibition zone incubated for 24 hrs by disc diffusion assay; assay type: functional
# [22] = test system: Staphylococcus aureus; assay: Antibacterial activity against Staphylococcus aureus ATCC 25923 assessed as inhibition of bacterial growth incubated for 24 hrs by broth macrodilution method; assay type: functional
# [23] = test system: Salmonella typhimurium; assay: Antibacterial activity against Salmonella typhimurium MTCC 98 assessed as bacterial growth inhibition by broth microdilution method; assay type: functional, Salmonella enterica subsp. enterica serovar Typhimurium; conditions: Salmonella enterica
# [24] = test system: Escherichia coli; assay: Antibacterial activity against Escherichia coli MTCC 443 assessed as bacterial growth inhibition by broth microdilution method; assay type: functional
# [25] = test system: Mycobacterium tuberculosis; assay: Antitubercular activity against Mycobacterium tuberculosis H37Rv assessed as bacterial growth inhibition at 250 ug/ml; assay type: functional
# [26] = test system: Mycobacterium tuberculosis; assay: Antitubercular activity against Mycobacterium tuberculosis H37Rv assessed as bacterial growth inhibition at 100 ug/ml; assay type: functional
# [27] = test system: Clostridium tetani; assay: Antibacterial activity against Clostridium tetani MTCC 449 assessed as bacterial growth inhibition by broth microdilution method; assay type: functional
# [28] = test system: Aspergillus fumigatus; assay: Antifungal activity against Aspergillus fumigatus MTCC 227 assessed as fungal growth inhibition by broth microdilution method; assay type: functional
# [29] = test system: Candida albicans; assay: Antifungal activity against Candida albicans assessed as inhibition of fungal growth at MIC by microdilution method; assay type: functional
# [30] = test system: Enterobacter cloacae; assay: Antibacterial activity against Enterobacter cloacae assessed as inhibition of bacterial growth at MIC by microdilution method; assay type: functional
# [31] = test system: Bacillus pumilus; assay: Antibacterial activity against Bacillus pumilus assessed as inhibition of bacterial growth at MIC by microdilution method; assay type: functional
# [32] = test system: Enterococcus faecalis; assay: Antibacterial activity against […] assessed as inhibition of bacterial growth by microdilution method; assay type: functional
# [33] = test system: Aspergillus niger; assay: Antifungal activity against Aspergillus niger assessed as inhibition of fungal growth at MIC by microdilution method; assay type: functional
# [34] = test system: Bacillus pumilus; assay: Antibacterial activity against Bacillus pumilus assessed as inhibition of bacterial growth by microdilution method; assay type: functional
# [35] = test system: Enterococcus faecalis; assay: Antibacterial activity against […] assessed as inhibition of bacterial growth at MIC by microdilution method; assay type: functional
# [36] = test system: Candida albicans; assay: […] activity against Candida albicans assessed as […] by microdilution method; assay type: functional
# [37] = test system: Enterobacter cloacae; assay: Antibacterial activity against Enterobacter cloacae assessed as inhibition of bacterial growth by microdilution method; assay type: functional
# [38] = test system: Aspergillus niger; assay: Antifungal activity against Aspergillus niger assessed as inhibition of fungal growth by microdilution method; assay type: functional
# [39] = test system: Bacillus pumilus; assay: Antibacterial activity against Bacillus pumilus assessed as minimum bactericidal concentration by microdilution method; assay type: functional
# [40] = test system: Candida albicans; assay: Antifungal activity against Candida albicans assessed as inhibition of fungal growth by microdilution method; assay type: functional
# [41] = test system: Enterobacter cloacae; assay: Antibacterial activity against Enterobacter cloacae assessed as minimum bactericidal concentration by microdilution method; assay type: functional
# [42] = test system: Escherichia coli; assay: Antibacterial activity against Escherichia coli assessed as inhibition of bacterial growth by microdilution method; assay type: functional
# [43] = test system: Aspergillus niger; assay: […] activity against Aspergillus niger assessed as […] by microdilution method; assay type: functional
# [44] = test system: Enterococcus faecalis; assay: Antibacterial activity against […] assessed as minimum bactericidal concentration by microdilution method; assay type: functional
# [45] = test system: Penicillium italicum; assay: microbe, parasite or virus in culture; assay type: functional; conditions: CECT 2294, dose 50 mg/ml, time 24 hrs, read-out: DIZ
# [46] = test system: Aspergillus niger; assay: Antifungal activity against Aspergillus niger ATCC 6275 assessed as diameter of inhibition zone incubated for 7 days by disc diffusion assay; assay type: functional; conditions: time 7 day
# [47] = test system: Escherichia coli; assay: Antibacterial activity against Escherichia coli ATCC 25922 assessed as inhibition of bacterial growth incubated for 24 hrs by broth macrodilution method; assay type: functional
# [48] = test system: Pseudomonas aeruginosa; assay: Antibacterial activity against Pseudomonas aeruginosa ATCC 27853 assessed as diameter of inhibition zone incubated for 24 hrs by disc diffusion assay; assay type: functional
# [49] = test system: Pseudomonas aeruginosa; assay: Antibacterial activity against Pseudomonas aeruginosa ATCC 27853 assessed as inhibition of bacterial growth incubated for 24 hrs by broth macrodilution method; assay type: functional
# [50] = test system: Aspergillus niger; assay: Antifungal activity against Aspergillus niger ATCC 6275 assessed as inhibition of […] growth incubated for 7 days by broth macrodilution method; assay type: functional; conditions: ATCC 6275, 168 h, time 7 day
# [51] = test system: Escherichia coli; assay: Antibacterial activity against Escherichia coli ATCC 25922 assessed as diameter of inhibition zone incubated for 24 hrs by disc diffusion assay; assay type: functional
smiles,measurement,setting,value
Cc1nc2c(c(=O)[nH]1)C(c1ccc(Cl)cc1)C=C(c1cc3ccccc3oc1=O)O2 (stereo not given),zone of inhibition at 50000 µg/mL,[1],10 mm
same,zone of inhibition at 50000 µg/mL,[2],10 mm
same,zone of inhibition at 50000 µg/mL,[3],14 mm
same,zone of inhibition at 50000 µg/mL,[4],20 mm
COc1cc(/C=C/C(=O)C2=C(/C=C/c3ccc(O)c(OC)c3)Oc3[nH]c(=O)[nH]c(=O)c3C2c2ccc([N+](=O)[O-])cc2)ccc1O (stereo not given),IC50,[5],12.41 µM
same,IC50,[6],106.8 µM
Cc1ccc(C2c3c(Nc4ccc([N+](=O)[O-])cc4)ncnc3Oc3c2c(=O)oc2ccccc32)cc1 (stereo not given),MIC,[7],15.6 µg/mL
same,MBC,[8],15.6 µg/mL
same,MIC,[9],15.6 µg/mL
same,MIC,[10],15.6 µg/mL
same,MIC,[11],15.6 µg/mL
same,MBC,[12],15.6 µg/mL
same,MIC,[13],15.6 µg/mL
same,MIC,[14],15.6 µg/mL
same,MBC,[15],15.6 µg/mL
COc1ccc(C2c3c([nH]c(=O)[nH]c3=O)Oc3ncn(C(N)=O)c(=N)c32)cc1 (stereo not given),IC50,[16],2.61 µM
same,IC50,[17],2.09 µM
same,MIC,[18],0.097 µg/mL
same,diameter of the inhibition zone (DIZ),[19],26 mm
same,IC50,[20],2.43 µM
same,diameter of the inhibition zone (DIZ),[21],21.7 mm
same,MIC,[22],0.781 µg/mL
CCOC(=O)C1=C(N)Oc2c(c(=O)n(C)c(=O)n2C)C1c1c(C)nn(-c2ccccc2)c1-n1ccnc1 (stereo not given),MIC,[23],100 µg/mL
same,MIC,[24],62.5 µg/mL
same,inhibition at 250 µg/mL,[25],84%
same,inhibition at 100 µg/mL,[26],30%
same,MIC,[27],100 µg/mL
same,MIC,[28],200 µg/mL
CCOC(=O)C1=C(N)OC2C(C(=O)N(c3ccc(C)cc3)C(=S)N2c2ccc(C)cc2)C1c1ccccc1 (stereo not given),inhibition (INH),[29],79.7%
same,inhibition (INH),[30],29.2%
same,inhibition (INH),[31],66.4%
same,MIC,[32],15.6 µg/mL
same,inhibition (INH),[33],85.1%
same,MIC,[34],31.2 µg/mL
same,inhibition (INH),[35],69.5%
same,MBC,[36],62.5 µg/mL
same,MIC,[37],62.5 µg/mL
same,MIC,[38],15.6 µg/mL
same,MBC,[39],125 µg/mL
same,MIC,[40],31.2 µg/mL
same,MBC,[41],62.5 µg/mL
same,MIC,[42],15.6 µg/mL
same,MBC,[43],500 µg/mL
same,MBC,[44],62.5 µg/mL
Clc1ccc(COC(Cn2ccnc2)c2ccc(Cl)cc2Cl)c(Cl)c1 (stereo not given) [MICONAZOLE NITRATE],zone of inhibition at 50000 µg/mL,[1],19 mm
same,zone of inhibition at 50000 µg/mL,[45],17 mm
COc1ccc(C2c3c([nH]c(=O)[nH]c3=O)Oc3ncn(-c4cc(C)ccn4)c(=N)c32)cc1 (stereo not given),diameter of the inhibition zone (DIZ),[46],17.2 mm
same,IC50,[16],2.61 µM
same,IC50,[17],2.09 µM
same,MIC,[47],0.781 µg/mL
same,diameter of the inhibition zone (DIZ),[48],17.3 mm
same,MIC,[49],3.12 µg/mL
same,MIC,[50],15.4 µg/mL
same,diameter of the inhibition zone (DIZ),[51],18.1 mm
same,IC50,[20],2.43 µM
